Columns and labels:
Test in all cases: KINOMEscan scanMAX
Assay type in all cases: binding
ERK1 = target: T1, ERK1 (Homo sapiens, UniProt P27361); conditions: read-out: Percent Control
T1 construct: purchased Eurofins Discovery (DiscoverX KINOMEscan scanMAX)
Experimental: (§1) The kinome-wide binding assay was performed by Eurofins Discovery using the scanMAX screening platform. More information can be found on the Eurofins Discovery Web site.

CAMK1 = target: T2, CAMK1 (Homo sapiens, UniProt Q14012); conditions: read-out: Percent Control
T2 construct: purchased Eurofins Discovery (DiscoverX KINOMEscan scanMAX)
Experimental: as §1

PAK4 = target: T3, PAK4 (Homo sapiens, UniProt O96013); conditions: read-out: Percent Control
T3 construct: purchased Eurofins Discovery (DiscoverX KINOMEscan scanMAX)
Experimental: as §1

PIK3CA(M1043I) = target: T4, PIK3CA(M1043I) (Homo sapiens, UniProt P42336, M1043I); conditions: read-out: Percent Control
T4 construct: purchased Eurofins Discovery (DiscoverX KINOMEscan scanMAX)
Experimental: as §1

[1] = target: T5, ABL1(H396P)-nonphosphorylated (Homo sapiens, UniProt P00519, H396P); conditions: read-out: Percent Control
T5 construct: purchased Eurofins Discovery (DiscoverX KINOMEscan scanMAX)
Experimental: as §1

PLK4 = target: T6, PLK4 (Homo sapiens, UniProt O00444); conditions: read-out: Percent Control
T6 construct: purchased Eurofins Discovery (DiscoverX KINOMEscan scanMAX)
Experimental: as §1

RIOK1 = target: T7, RIOK1 (Homo sapiens, UniProt Q9BRS2); conditions: read-out: Percent Control
T7 construct: purchased Eurofins Discovery (DiscoverX KINOMEscan scanMAX)
Experimental: as §1

CAMK1D = target: T8, CAMK1D (Homo sapiens, UniProt Q8IU85); conditions: read-out: Percent Control
T8 construct: purchased Eurofins Discovery (DiscoverX KINOMEscan scanMAX)
Experimental: as §1

FLT3(ITD) = test system: FLT3(ITD)
Experimental: as §1

CSNK1A1L = target: T9, CSNK1A1L (Homo sapiens, UniProt Q8N752); conditions: read-out: Percent Control
T9 construct: purchased Eurofins Discovery (DiscoverX KINOMEscan scanMAX)
Experimental: as §1

MLK1 = target: T10, MLK1 (Homo sapiens, UniProt P80192); conditions: read-out: Percent Control
T10 construct: purchased Eurofins Discovery (DiscoverX KINOMEscan scanMAX)
Experimental: as §1

RIPK2 = target: T11, RIPK2 (Homo sapiens, UniProt O43353); conditions: read-out: Percent Control
T11 construct: purchased Eurofins Discovery (DiscoverX KINOMEscan scanMAX)
Experimental: as §1

PIK3CA(H1047Y) = target: T12, PIK3CA(H1047Y) (Homo sapiens, UniProt P42336, H1047Y); conditions: read-out: Percent Control
T12 construct: purchased Eurofins Discovery (DiscoverX KINOMEscan scanMAX)
Experimental: as §1

CAMKK1 = target: T13, CAMKK1 (Homo sapiens, UniProt Q8N5S9); conditions: read-out: Percent Control
T13 construct: purchased Eurofins Discovery (DiscoverX KINOMEscan scanMAX)
Experimental: as §1

LTK = target: T14, LTK (Homo sapiens, UniProt P29376); conditions: read-out: Percent Control
T14 construct: purchased Eurofins Discovery (DiscoverX KINOMEscan scanMAX)
Experimental: as §1

CTK = target: T15, CTK (Homo sapiens, UniProt P42679); conditions: read-out: Percent Control
T15 construct: purchased Eurofins Discovery (DiscoverX KINOMEscan scanMAX)
Experimental: as §1

PDGFRB = target: T16, PDGFRB (Homo sapiens, UniProt P09619); conditions: read-out: Percent Control
T16 construct: purchased Eurofins Discovery (DiscoverX KINOMEscan scanMAX)
Experimental: as §1

AAK1 = target: T17, AAK1 (Homo sapiens, UniProt Q2M2I8); conditions: read-out: Percent Control
T17 construct: purchased Eurofins Discovery (DiscoverX KINOMEscan scanMAX)
Experimental: as §1

CDKL3 = target: T18, CDKL3 (Homo sapiens, UniProt Q8IVW4); conditions: read-out: Percent Control
T18 construct: purchased Eurofins Discovery (DiscoverX KINOMEscan scanMAX)
Experimental: as §1

CDK8 = target: T19, CDK8 (Homo sapiens, UniProt P49336); conditions: read-out: Percent Control
T19 construct: purchased Eurofins Discovery (DiscoverX KINOMEscan scanMAX)
Experimental: as §1

NEK4 = target: T20, NEK4 (Homo sapiens, UniProt P51957); conditions: read-out: Percent Control
T20 construct: purchased Eurofins Discovery (DiscoverX KINOMEscan scanMAX)
Experimental: as §1

TRKA = target: T21, TRKA (Homo sapiens, UniProt P04629); conditions: read-out: Percent Control
T21 construct: purchased Eurofins Discovery (DiscoverX KINOMEscan scanMAX)
Experimental: as §1

EPHA3 = target: T22, EPHA3 (Homo sapiens, UniProt P29320); conditions: read-out: Percent Control
T22 construct: purchased Eurofins Discovery (DiscoverX KINOMEscan scanMAX)
Experimental: as §1

KIT(L576P) = target: T23, KIT(L576P) (Homo sapiens, UniProt P10721, L576P); conditions: read-out: Percent Control
T23 construct: purchased Eurofins Discovery (DiscoverX KINOMEscan scanMAX)
Experimental: as §1

TESK1 = target: T24, TESK1 (Homo sapiens, UniProt Q15569); conditions: read-out: Percent Control
T24 construct: purchased Eurofins Discovery (DiscoverX KINOMEscan scanMAX)
Experimental: as §1

MAK = target: T25, MAK (Homo sapiens, UniProt P20794); conditions: read-out: Percent Control
T25 construct: purchased Eurofins Discovery (DiscoverX KINOMEscan scanMAX)
Experimental: as §1

ASK2 = target: T26, ASK2 (Homo sapiens, UniProt O95382); conditions: read-out: Percent Control
T26 construct: purchased Eurofins Discovery (DiscoverX KINOMEscan scanMAX)
Experimental: as §1

NEK7 = target: T27, NEK7 (Homo sapiens, UniProt Q8TDX7); conditions: read-out: Percent Control
T27 construct: purchased Eurofins Discovery (DiscoverX KINOMEscan scanMAX)
Experimental: as §1

PRKD3 = target: T28, PRKD3 (Homo sapiens, UniProt O94806); conditions: read-out: Percent Control
T28 construct: purchased Eurofins Discovery (DiscoverX KINOMEscan scanMAX)
Experimental: as §1

GSK3A = target: T29, GSK3A (Homo sapiens, UniProt P49840); conditions: read-out: Percent Control
T29 construct: purchased Eurofins Discovery (DiscoverX KINOMEscan scanMAX)
Experimental: as §1

CDK4 = target: T30, CDK4 (Homo sapiens, UniProt P11802); conditions: read-out: Percent Control
T30 construct: purchased Eurofins Discovery (DiscoverX KINOMEscan scanMAX)
Experimental: as §1

PRKG2 = target: T31, PRKG2 (Homo sapiens, UniProt Q13237); conditions: read-out: Percent Control
T31 construct: purchased Eurofins Discovery (DiscoverX KINOMEscan scanMAX)
Experimental: as §1

ZAP70 = target: T32, ZAP70 (Homo sapiens, UniProt P43403); conditions: read-out: Percent Control
T32 construct: purchased Eurofins Discovery (DiscoverX KINOMEscan scanMAX)
Experimental: as §1

BTK = target: T33, BTK (Homo sapiens, UniProt Q06187); conditions: read-out: Percent Control
T33 construct: purchased Eurofins Discovery (DiscoverX KINOMEscan scanMAX)
Experimental: as §1

T14 sequence (P29376 17-864): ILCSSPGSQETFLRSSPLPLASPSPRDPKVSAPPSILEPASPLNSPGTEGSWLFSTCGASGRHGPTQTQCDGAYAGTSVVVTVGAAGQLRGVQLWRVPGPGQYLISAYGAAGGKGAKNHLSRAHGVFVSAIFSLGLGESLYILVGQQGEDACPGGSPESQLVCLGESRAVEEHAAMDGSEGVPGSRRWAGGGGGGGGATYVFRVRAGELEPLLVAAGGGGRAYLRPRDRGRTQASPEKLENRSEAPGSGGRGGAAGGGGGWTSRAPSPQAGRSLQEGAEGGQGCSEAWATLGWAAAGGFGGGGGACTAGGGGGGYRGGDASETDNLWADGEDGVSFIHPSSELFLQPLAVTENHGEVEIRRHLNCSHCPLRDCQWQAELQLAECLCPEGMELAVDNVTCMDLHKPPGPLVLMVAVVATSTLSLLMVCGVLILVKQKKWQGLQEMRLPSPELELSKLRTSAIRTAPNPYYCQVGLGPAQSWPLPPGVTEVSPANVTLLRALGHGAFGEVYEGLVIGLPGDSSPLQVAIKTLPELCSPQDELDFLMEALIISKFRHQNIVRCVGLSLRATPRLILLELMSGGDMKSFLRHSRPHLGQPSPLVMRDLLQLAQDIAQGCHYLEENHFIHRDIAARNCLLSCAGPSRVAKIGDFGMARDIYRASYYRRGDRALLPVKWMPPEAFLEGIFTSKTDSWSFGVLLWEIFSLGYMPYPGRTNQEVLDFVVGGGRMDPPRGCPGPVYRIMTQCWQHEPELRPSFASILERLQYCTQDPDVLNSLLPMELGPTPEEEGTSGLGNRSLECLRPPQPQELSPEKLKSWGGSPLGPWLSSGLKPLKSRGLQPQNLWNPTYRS
T27 sequence (Q8TDX7 whole entry): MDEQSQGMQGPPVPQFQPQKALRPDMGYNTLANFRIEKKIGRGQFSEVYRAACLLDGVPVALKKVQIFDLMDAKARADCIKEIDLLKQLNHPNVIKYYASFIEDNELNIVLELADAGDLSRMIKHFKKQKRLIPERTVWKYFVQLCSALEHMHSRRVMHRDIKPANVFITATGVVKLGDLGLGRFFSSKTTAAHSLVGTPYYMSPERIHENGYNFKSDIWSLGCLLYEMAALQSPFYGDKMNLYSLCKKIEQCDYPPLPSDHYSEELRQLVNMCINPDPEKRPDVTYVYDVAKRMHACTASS
T22 sequence (P29320 21-983): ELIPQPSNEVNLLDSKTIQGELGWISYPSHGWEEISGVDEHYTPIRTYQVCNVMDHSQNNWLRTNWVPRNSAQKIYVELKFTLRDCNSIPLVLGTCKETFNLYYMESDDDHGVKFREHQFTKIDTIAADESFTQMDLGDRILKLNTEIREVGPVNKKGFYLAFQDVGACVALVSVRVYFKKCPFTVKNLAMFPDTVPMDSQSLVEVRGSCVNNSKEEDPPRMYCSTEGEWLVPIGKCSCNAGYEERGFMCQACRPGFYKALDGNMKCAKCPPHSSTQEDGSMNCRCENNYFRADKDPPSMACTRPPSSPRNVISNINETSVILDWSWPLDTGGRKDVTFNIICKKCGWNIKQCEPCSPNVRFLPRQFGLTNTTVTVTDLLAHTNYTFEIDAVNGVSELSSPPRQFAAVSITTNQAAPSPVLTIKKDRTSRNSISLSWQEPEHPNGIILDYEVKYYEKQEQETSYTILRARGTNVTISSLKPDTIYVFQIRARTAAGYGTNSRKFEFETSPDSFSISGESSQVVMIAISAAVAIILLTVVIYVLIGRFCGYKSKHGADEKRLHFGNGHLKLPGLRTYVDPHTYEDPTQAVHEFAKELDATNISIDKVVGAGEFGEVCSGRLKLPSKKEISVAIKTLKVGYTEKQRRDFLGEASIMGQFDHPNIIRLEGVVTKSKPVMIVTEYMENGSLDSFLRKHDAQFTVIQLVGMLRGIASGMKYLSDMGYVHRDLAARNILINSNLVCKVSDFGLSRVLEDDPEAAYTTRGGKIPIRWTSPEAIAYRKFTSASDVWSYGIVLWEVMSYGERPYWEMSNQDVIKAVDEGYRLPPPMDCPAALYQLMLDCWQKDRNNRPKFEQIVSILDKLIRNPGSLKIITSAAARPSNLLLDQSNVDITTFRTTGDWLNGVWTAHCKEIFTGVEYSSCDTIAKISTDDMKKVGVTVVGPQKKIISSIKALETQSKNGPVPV
T7 sequence (Q9BRS2 whole entry): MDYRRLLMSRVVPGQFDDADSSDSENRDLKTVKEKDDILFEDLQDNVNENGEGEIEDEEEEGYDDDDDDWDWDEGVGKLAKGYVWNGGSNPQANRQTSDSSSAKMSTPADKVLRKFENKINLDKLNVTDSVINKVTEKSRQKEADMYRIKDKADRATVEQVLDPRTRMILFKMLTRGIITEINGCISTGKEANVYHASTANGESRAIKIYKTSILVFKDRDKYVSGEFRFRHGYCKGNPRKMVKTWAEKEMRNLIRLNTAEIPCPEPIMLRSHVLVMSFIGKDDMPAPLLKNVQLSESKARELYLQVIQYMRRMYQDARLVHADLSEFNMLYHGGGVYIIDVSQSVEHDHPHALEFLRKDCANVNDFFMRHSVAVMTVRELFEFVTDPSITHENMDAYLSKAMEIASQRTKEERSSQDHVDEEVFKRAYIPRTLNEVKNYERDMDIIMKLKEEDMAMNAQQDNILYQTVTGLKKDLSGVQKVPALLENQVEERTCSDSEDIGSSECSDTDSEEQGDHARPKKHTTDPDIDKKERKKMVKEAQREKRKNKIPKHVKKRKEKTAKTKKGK
T9 sequence (Q8N752 whole entry): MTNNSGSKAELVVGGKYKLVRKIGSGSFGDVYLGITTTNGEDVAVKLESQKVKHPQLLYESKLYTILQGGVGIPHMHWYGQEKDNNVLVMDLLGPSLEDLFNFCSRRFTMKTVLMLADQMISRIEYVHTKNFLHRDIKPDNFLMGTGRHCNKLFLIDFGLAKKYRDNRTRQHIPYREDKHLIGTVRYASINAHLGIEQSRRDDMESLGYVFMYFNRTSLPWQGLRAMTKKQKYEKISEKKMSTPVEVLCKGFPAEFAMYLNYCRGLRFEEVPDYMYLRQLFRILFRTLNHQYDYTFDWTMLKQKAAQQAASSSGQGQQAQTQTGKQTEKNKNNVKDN
T2 sequence (Q14012 whole entry): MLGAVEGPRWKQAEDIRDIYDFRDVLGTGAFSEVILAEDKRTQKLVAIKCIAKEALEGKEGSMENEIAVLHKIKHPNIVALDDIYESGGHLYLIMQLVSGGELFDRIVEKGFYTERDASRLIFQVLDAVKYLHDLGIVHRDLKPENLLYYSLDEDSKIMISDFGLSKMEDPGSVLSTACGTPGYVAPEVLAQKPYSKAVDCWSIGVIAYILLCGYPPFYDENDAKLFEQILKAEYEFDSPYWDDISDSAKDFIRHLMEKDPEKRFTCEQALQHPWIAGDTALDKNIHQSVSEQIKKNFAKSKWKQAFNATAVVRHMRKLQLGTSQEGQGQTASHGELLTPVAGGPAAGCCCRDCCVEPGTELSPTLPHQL
T31 sequence (Q13237 whole entry): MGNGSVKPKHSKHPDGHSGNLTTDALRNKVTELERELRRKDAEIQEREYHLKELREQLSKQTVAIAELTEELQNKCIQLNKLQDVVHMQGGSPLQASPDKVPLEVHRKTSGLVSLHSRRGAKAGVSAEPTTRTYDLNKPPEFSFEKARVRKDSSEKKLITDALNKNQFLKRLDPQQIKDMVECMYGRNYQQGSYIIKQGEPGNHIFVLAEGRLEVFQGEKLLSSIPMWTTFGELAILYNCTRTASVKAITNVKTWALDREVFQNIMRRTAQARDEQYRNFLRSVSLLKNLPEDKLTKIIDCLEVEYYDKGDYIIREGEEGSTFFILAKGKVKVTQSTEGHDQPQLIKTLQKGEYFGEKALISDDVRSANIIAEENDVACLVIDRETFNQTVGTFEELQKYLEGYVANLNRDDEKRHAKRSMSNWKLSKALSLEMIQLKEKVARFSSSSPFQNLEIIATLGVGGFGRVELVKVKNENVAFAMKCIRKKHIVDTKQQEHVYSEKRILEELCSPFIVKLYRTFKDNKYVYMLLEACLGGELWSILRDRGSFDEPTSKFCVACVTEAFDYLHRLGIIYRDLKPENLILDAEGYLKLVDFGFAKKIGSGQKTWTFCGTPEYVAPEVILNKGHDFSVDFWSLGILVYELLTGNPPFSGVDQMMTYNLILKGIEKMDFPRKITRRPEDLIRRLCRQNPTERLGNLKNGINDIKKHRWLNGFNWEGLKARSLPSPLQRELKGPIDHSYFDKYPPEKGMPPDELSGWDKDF
T21 sequence (P04629 33-796): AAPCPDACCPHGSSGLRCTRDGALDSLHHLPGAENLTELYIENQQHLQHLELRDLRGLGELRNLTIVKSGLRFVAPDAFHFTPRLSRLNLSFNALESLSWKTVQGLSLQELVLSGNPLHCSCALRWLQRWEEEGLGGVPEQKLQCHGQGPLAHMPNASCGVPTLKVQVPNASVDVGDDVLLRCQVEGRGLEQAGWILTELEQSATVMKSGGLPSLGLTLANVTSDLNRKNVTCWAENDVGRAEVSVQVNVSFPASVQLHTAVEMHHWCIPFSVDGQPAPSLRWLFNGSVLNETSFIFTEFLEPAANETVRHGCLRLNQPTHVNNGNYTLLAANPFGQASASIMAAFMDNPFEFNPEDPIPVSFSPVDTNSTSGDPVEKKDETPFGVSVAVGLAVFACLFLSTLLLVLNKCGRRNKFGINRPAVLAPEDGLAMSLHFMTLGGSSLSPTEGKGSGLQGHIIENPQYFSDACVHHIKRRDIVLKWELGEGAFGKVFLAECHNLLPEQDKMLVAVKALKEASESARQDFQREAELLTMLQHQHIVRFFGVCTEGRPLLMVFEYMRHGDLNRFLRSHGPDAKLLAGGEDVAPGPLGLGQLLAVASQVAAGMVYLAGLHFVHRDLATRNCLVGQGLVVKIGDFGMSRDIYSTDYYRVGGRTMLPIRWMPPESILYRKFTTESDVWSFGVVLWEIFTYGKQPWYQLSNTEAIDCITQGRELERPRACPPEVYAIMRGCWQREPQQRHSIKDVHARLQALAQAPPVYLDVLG

## Cc1cc(Nc2ccc(F)c(CC3(C(=O)N4CCC(F)(CN5CCN(c6ccc(N7CCC(=O)NC7=O)cn6)CC5)CC4)CCN(Cc4cccc(Cl)c4F)CC3)n2)n[nH]1 [SK5527]
ERK1; 100 nM
  remaining binding at 0.1 µM: 94%
ERK1; 1000 nM
  remaining binding at 1 µM: 94%
CAMK1; 100 nM
  remaining binding at 0.1 µM: 100%
CAMK1; 1000 nM
  remaining binding at 1 µM: 98%
PAK4; 100 nM
  remaining binding at 0.1 µM: 100%
PAK4; 1000 nM
  remaining binding at 1 µM: 81%
PIK3CA(M1043I); 100 nM
  remaining binding at 0.1 µM: 100%
PIK3CA(M1043I); 1000 nM
  remaining binding at 1 µM: 100%
[1]; 100 nM
  remaining binding at 0.1 µM: 68%
[1]; 1000 nM
  remaining binding at 1 µM: 19%
PLK4; 100 nM
  remaining binding at 0.1 µM: 76%
PLK4; 1000 nM
  remaining binding at 1 µM: 29%
RIOK1; 100 nM
  remaining binding at 0.1 µM: 100%
RIOK1; 1000 nM
  remaining binding at 1 µM: 100%
CAMK1D; 100 nM
  remaining binding at 0.1 µM: 100%
CAMK1D; 1000 nM
  remaining binding at 1 µM: 100%
FLT3(ITD); 100 nM
  Percent Control: 89%
FLT3(ITD); 1000 nM
  Percent Control: 94%
CSNK1A1L; 100 nM
  remaining binding at 0.1 µM: 91%
CSNK1A1L; 1000 nM
  remaining binding at 1 µM: 87%
MLK1; 100 nM
  remaining binding at 0.1 µM: 94%
MLK1; 1000 nM
  remaining binding at 1 µM: 91%
RIPK2; 100 nM
  remaining binding at 0.1 µM: 80%
RIPK2; 1000 nM
  remaining binding at 1 µM: 88%
PIK3CA(H1047Y); 100 nM
  remaining binding at 0.1 µM: 95%
PIK3CA(H1047Y); 1000 nM
  remaining binding at 1 µM: 100%
CAMKK1; 100 nM
  remaining binding at 0.1 µM: 100%
CAMKK1; 1000 nM
  remaining binding at 1 µM: 100%
LTK; 100 nM
  remaining binding at 0.1 µM: 100%
LTK; 1000 nM
  remaining binding at 1 µM: 100%
CTK; 100 nM
  remaining binding at 0.1 µM: 100%
CTK; 1000 nM
  remaining binding at 1 µM: 91%
PDGFRB; 100 nM
  remaining binding at 0.1 µM: 100%
PDGFRB; 1000 nM
  remaining binding at 1 µM: 63%
AAK1; 100 nM
  remaining binding at 0.1 µM: 100%
AAK1; 1000 nM
  remaining binding at 1 µM: 92%
CDKL3; 100 nM
  remaining binding at 0.1 µM: 100%
CDKL3; 1000 nM
  remaining binding at 1 µM: 83%
CDK8; 100 nM
  remaining binding at 0.1 µM: 88%
CDK8; 1000 nM
  remaining binding at 1 µM: 89%
NEK4; 100 nM
  remaining binding at 0.1 µM: 72%
NEK4; 1000 nM
  remaining binding at 1 µM: 65%
TRKA; 100 nM
  remaining binding at 0.1 µM: 32%
TRKA; 1000 nM
  remaining binding at 1 µM: 8.3%
EPHA3; 100 nM
  remaining binding at 0.1 µM: 99%
EPHA3; 1000 nM
  remaining binding at 1 µM: 71%
KIT(L576P); 100 nM
  remaining binding at 0.1 µM: 100%
KIT(L576P); 1000 nM
  remaining binding at 1 µM: 100%
TESK1; 100 nM
  remaining binding at 0.1 µM: 66%
TESK1; 1000 nM
  remaining binding at 1 µM: 83%
MAK; 100 nM
  remaining binding at 0.1 µM: 100%
MAK; 1000 nM
  remaining binding at 1 µM: 100%
ASK2; 100 nM
  remaining binding at 0.1 µM: 62%
ASK2; 1000 nM
  remaining binding at 1 µM: 56%
NEK7; 100 nM
  remaining binding at 0.1 µM: 74%
NEK7; 1000 nM
  remaining binding at 1 µM: 73%
PRKD3; 100 nM
  remaining binding at 0.1 µM: 100%
PRKD3; 1000 nM
  remaining binding at 1 µM: 100%
GSK3A; 100 nM
  remaining binding at 0.1 µM: 100%
GSK3A; 1000 nM
  remaining binding at 1 µM: 94%
CDK4; 100 nM
  remaining binding at 0.1 µM: 72%
CDK4; 1000 nM
  remaining binding at 1 µM: 90%
PRKG2; 100 nM
  remaining binding at 0.1 µM: 86%
PRKG2; 1000 nM
  remaining binding at 1 µM: 78%
ZAP70; 100 nM
  remaining binding at 0.1 µM: 97%
ZAP70; 1000 nM
  remaining binding at 1 µM: 100%
BTK; 100 nM
  remaining binding at 0.1 µM: 88%
BTK; 1000 nM
  remaining binding at 1 µM: 80%
